Laboratory results: patent US9737075B2, “Synergistic benzoxaborole-containing anti-fungicidal composition” (The Penn State Research Foundation, priority 2015, dated 2017)
In brackets after ≈: the same amount, converted by molar mass. Read-outs that look alike come from different tables or passages of the source.

Experiments:
Format in all cases: cell-based
Aspergillus niger = assay: Broth microdilution MIC of individual antifungals; conditions: for MIC: read-out: Independent MIC
Mucor sp. = assay: Broth microdilution MIC of individual antifungals; conditions: individual antifungal, 25% PDB, about 25° C., 72 hours, range over N independent triplicate studies
Sclerotinia homoeocarpa = assay: Broth microdilution MIC of individual antifungals; conditions: Sclerotinia homoeocarpa, individual antifungal, 25% PDB, about 25° C., 72 hours, range over N independent triplicate studies; for MIC: Clarireedia homoeocarpa, read-out: Independent MIC
Fusarium graminearum = assay: microbe, parasite or virus in culture; conditions: for MIC: 72 h, read-out: Independent MIC
Rhizoctonia solani = assay: Broth microdilution MIC of individual antifungals; conditions: individual antifungal, 25% PDB, about 25° C., 72 hours, range over N independent triplicate studies; for MIC: read-out: Independent MIC
Candida albicans = assay: Broth microdilution MIC of individual antifungals; conditions: for MIC: read-out: Independent MIC
[1] = test system: Colletotrichum orbiculare; assay: Broth microdilution MIC of individual antifungals; conditions: for MIC: read-out: Independent MIC
Magnaporthe grisea = assay: microbe, parasite or virus in culture; conditions: for MIC: Pyricularia oryzae, 72 h, read-out: Independent MIC
Botrytis cinerea 10-1728 = assay: Broth microdilution MIC of individual antifungals; conditions: Botrytis cinerea 10-1728, individual antifungal, 25% PDB, about 25° C., 72 hours, range over N independent triplicate studies; for MIC: 101728, read-out: Independent MIC
[2] = test system: Fusarium solani f. sp. pisi (MP VI); assay: Broth microdilution MIC of individual antifungals; conditions: Fusarium solani f. sp. pisi (MP VI), individual antifungal, 25% PDB, about 25° C., 72 hours, range over N independent triplicate studies
Aspergillus fumigatus = assay: Broth microdilution MIC of individual antifungals; conditions: individual antifungal, 25% PDB, about 25° C., 72 hours, range over N independent triplicate studies; for MIC: read-out: Independent MIC
Botrytis cinerea B17 = assay: Broth microdilution MIC of individual antifungals; conditions: Botrytis cinerea B17, individual antifungal, 25% PDB, about 25° C., 72 hours, range over N independent triplicate studies; for MIC: read-out: Independent MIC
[3] = test system: Fusarium oxysporum f. sp. lycopersici; assay: Broth microdilution MIC of individual antifungals; conditions: individual antifungal, 25% PDB, about 25° C., 72 hours, range over N independent triplicate studies
Alternaria solani = assay: Broth microdilution MIC of individual antifungals; conditions: individual antifungal, 25% PDB, about 25° C., 72 hours, range over N independent triplicate studies; for MIC: read-out: Independent MIC
Rhizopus sp. = assay: Broth microdilution MIC of individual antifungals; conditions: Rhizopus sp., individual antifungal, 25% PDB, about 25° C., 72 hours, range over N independent triplicate studies; for MIC: Rhizopus, 72 h, read-out: Independent MIC
Stachybotrys chartarum = assay: Broth microdilution MIC of individual antifungals; conditions: individual antifungal, 25% PDB, about 25° C., 72 hours, range over N independent triplicate studies; for MIC: read-out: Independent MIC
Phytophthora pini = assay: Broth microdilution MIC of individual antifungals; conditions: individual antifungal, 25% PDB, about 25° C., 72 hours, range over N independent triplicate studies
Aspergillus flavus = assay: Broth microdilution MIC of individual antifungals; conditions: individual antifungal, 25% PDB, about 25° C., 72 hours, range over N independent triplicate studies; for MIC: read-out: Independent MIC
Fusarium oxysporum ST33 = assay: Broth microdilution MIC of individual antifungals; conditions: individual antifungal, 25% PDB, about 25° C., 72 hours, range over N independent triplicate studies
Fusarium verticillioides = assay: Broth microdilution MIC of individual antifungals; conditions: individual antifungal, 25% PDB, about 25° C., 72 hours, range over N independent triplicate studies; for MIC: read-out: Independent MIC
Pythium aphanodermatum = assay: Broth microdilution MIC of individual antifungals; conditions: individual antifungal, 25% PDB, about 25° C., 72 hours, range over N independent triplicate studies
Aureobasidium pullulans = assay: Broth microdilution MIC of individual antifungals; conditions: individual antifungal, 25% PDB, about 25° C., 72 hours, range over N independent triplicate studies; for MIC: read-out: Independent MIC
[4] = test system: Mycosphaerella zeae-maydis; assay: Broth microdilution MIC of individual antifungals; conditions: individual antifungal, 25% PDB, about 25° C., 72 hours, range over N independent triplicate studies; for MIC: Didymella maydis
Penicillium chrysogenum = assay: Broth microdilution MIC of individual antifungals; conditions: individual antifungal, 25% PDB, about 25° C., 72 hours, range over N independent triplicate studies; for MIC: read-out: Independent MIC
[5] = individual antifungal, 25% PDB, about 25° C., 72 hours, range over N independent triplicate studies

In the case of `CC(C)OP(=O)(OC(C)C)SCc1ccccc1` [Iprobenfos, iprobenfos], the MIC (Aspergillus niger; 72 h) is reported as 200 to 300 µg/mL, the MIC (Mucor sp.) is reported as 100 to 200 µg/mL and the MIC (Sclerotinia homoeocarpa) is reported as 12.5 to 25 µg/mL. The MIC (Fusarium graminearum; Fusarium graminearum) was 200 to 400 µg/mL (≈ 694 to 1390 µM), the MIC (Rhizoctonia solani) was 200 to 400 µg/mL and the MIC (Candida albicans; 72 h) was 200 to 400 µg/mL. It also gave an MIC ([1]; 72 h) of 12.5 to 25 µg/mL, an MIC (Magnaporthe grisea) of 25 µg/mL (≈ 86.7 µM) and an MIC (Botrytis cinerea 10-1728) of 100 to 200 µg/mL.
`Cc1cc(C)nc(Nc2ccccc2)n1` [Pyrimethanil, pyrimethanil] gave an MIC ([2]; read-out: Independent MIC) of 200 to 400 µg/mL, an MIC (Aspergillus niger; [5]) of 100 to 200 µg/mL and an MIC (Aspergillus fumigatus) of 0.78 to 1 µg/mL. The MIC (Botrytis cinerea B17) was 50 to 100 µg/mL, the MIC [3] was 200 µg/mL and the MIC (Mucor sp.) was 200 µg/mL. It also gave an MIC (Alternaria solani) of 100 to 200 µg/mL, an MIC (Sclerotinia homoeocarpa) of 50 to 100 µg/mL and an MIC (Fusarium graminearum; Fusarium graminearum) of 200 µg/mL (≈ 1000 µM). The MIC (Rhizopus sp.) was 200 to 400 µg/mL, the MIC (Stachybotrys chartarum) was 50 to 90 µg/mL and the MIC (Phytophthora pini) was 100 µg/mL. The MIC (Aspergillus flavus) was 25 µg/mL, the MIC (Fusarium oxysporum ST33) was 200 µg/mL and the MIC (Fusarium verticillioides) was 200 µg/mL. It also gave an MIC (Pythium aphanodermatum) of 100 to 200 µg/mL, an MIC (Aureobasidium pullulans) of 25 to 50 µg/mL and an MIC (Candida albicans; [5]) of 200 µg/mL. For the same compound, the MIC (Magnaporthe grisea) was 100 to 200 µg/mL (≈ 502 to 1000 µM), the MIC [4] was 6.25 to 12.5 µg/mL and the MIC (Botrytis cinerea 10-1728) was 50 to 100 µg/mL.
`CC(C)(C)C(O)(CCc1ccc(Cl)cc1)Cn1cncn1` (centres unmarked) [Tebuconazole, tebuconazole] was tested, and the MIC (Aspergillus niger; [5]) was 3.12 µg/mL, the MIC (Aspergillus fumigatus) was 0.78 to 1.56 µg/mL and the MIC (Mucor sp.) was 12.5 to 15 µg/mL. The MIC (Alternaria solani) was 25 to 50 µg/mL, the MIC (Sclerotinia homoeocarpa) was 0.39 to 0.78 µg/mL and the MIC (Rhizopus sp.) was 0.78 µg/mL. It also gave an MIC (Rhizoctonia solani) of 3.12 to 6.25 µg/mL, an MIC (Aspergillus flavus) of 3 to 3.12 µg/mL and an MIC (Fusarium verticillioides) of 1.56 to 3 µg/mL. For the same compound, the MIC (Candida albicans; [5]) was 100 to 200 µg/mL, the MIC [1, 5] was 1.56 to 3.13 µg/mL and the MIC [4] was 50 to 100 µg/mL. For the same compound, the MIC (Botrytis cinerea 10-1728) was 1 to 1.56 µg/mL.
Work on `c1ccc2[nH]c(-c3cscn3)nc2c1` [Thiabendazole] yielded an MIC (Aspergillus niger; [5]) of 12.5 to 50 µg/mL, an MIC (Aspergillus fumigatus) of 12.5 to 50 µg/mL and an MIC (Botrytis cinerea B17) of 50 µg/mL. The MIC [3] was 200 to 400 µg/mL, the MIC (Sclerotinia homoeocarpa) was 20 to 25 µg/mL and the MIC (Fusarium graminearum; Fusarium graminearum) was 1.5 to 3.12 µg/mL (≈ 7.45 to 15.5 µM). The MIC (Stachybotrys chartarum) was 25 to 30 µg/mL, the MIC (Phytophthora pini) was 100 µg/mL and the MIC (Aspergillus flavus) was 12.5 to 40 µg/mL. It also gave an MIC (Fusarium oxysporum ST33) of 25 to 80 µg/mL, an MIC (Fusarium verticillioides) of 3 to 6.25 µg/mL and an MIC (Pythium aphanodermatum) of 200 to 400 µg/mL. For the same compound, the MIC (Aureobasidium pullulans) was 0.2 to 0.39 µg/mL, the MIC (Penicillium chrysogenum) was 0.375 to 0.39 µg/mL and the MIC (Magnaporthe grisea) was 1.56 to 3.13 µg/mL (≈ 7.75 to 15.6 µM). The MIC [4] was 12.5 to 25 µg/mL and the MIC (Botrytis cinerea 10-1728) was 200 to 400 µg/mL.
Compound `COC(=O)NC(=S)Nc1ccccc1NC(=S)NC(=O)OC` [Thiophanate-Methyl, thiophanate-methyl] has an MIC (Aspergillus niger; [5]) of 25 µg/mL, an MIC (Aspergillus fumigatus) of 50 to 100 µg/mL and an MIC (Mucor sp.) of 200 to 400 µg/mL. The MIC (Sclerotinia homoeocarpa) was 0.5 to 1 µg/mL, the MIC (Fusarium graminearum; Fusarium graminearum) was 100 to 400 µg/mL (≈ 292 to 1170 µM) and the MIC (Phytophthora pini) was 25 µg/mL. The MIC (Pythium aphanodermatum) was 400 µg/mL, the MIC (Aureobasidium pullulans) was 0.1 to 0.39 µg/mL and the MIC (Penicillium chrysogenum) was 12.5 µg/mL. It also gave an MIC (Magnaporthe grisea) of 25 to 50 µg/mL (≈ 73 to 146 µM), an MIC [4] of 25 to 50 µg/mL and an MIC (Botrytis cinerea 10-1728) of 200 to 400 µg/mL.
In the case of mancozeb, the “Independent MIC” value [2] is reported as 100 µg/mL, the “Independent MIC” value (Aspergillus niger; [5]) is reported as “(25-50) μg/mL” and the “Independent MIC” value (Aspergillus fumigatus) is reported as 100 µg/mL. For the same compound, the “Independent MIC” value (Botrytis cinerea B17) was “(32-64) μg/mL”, the “Independent MIC” value [3] was “(6-12.5) μg/mL” and the “Independent MIC” value (Mucor sp.) was “(50-100) μg/mL”. For the same compound, the “Independent MIC” value (Alternaria solani) was “(10-12.5) μg/mL”, the “Independent MIC” value (Sclerotinia homoeocarpa) was “(8-20) μg/mL” and the “Independent MIC” value (Fusarium graminearum; Fusarium graminearum, individual antifungal, 25% PDB, about 25° C., 72 hours, range over N independent triplicate studies) was 12.5 µg/mL. For the same compound, the “Independent MIC” value (Rhizopus sp.) was “(25-80) μg/mL”, the “Independent MIC” value (Stachybotrys chartarum) was “(3.125-6.25) μg/mL” and the “Independent MIC” value (Phytophthora pini) was 0.39 µg/mL. For the same compound, the “Independent MIC” value (Aspergillus flavus) was “(6.25-25)^ μg/mL”, the “Independent MIC” value (Fusarium oxysporum ST33) was “(32-80) μg/mL” and the “Independent MIC” value (Fusarium verticillioides) was “(4-8) μg/mL”. The “Independent MIC” value (Pythium aphanodermatum) was “(28-50) μg/mL”, the “Independent MIC” value (Aureobasidium pullulans) was “(6.25-12.5) μg/mL” and the “Independent MIC” value (Penicillium chrysogenum) was “(6.25-12.5) μg/mL”. The “Independent MIC” value (Candida albicans; [5]) was 50 µg/mL, the “Independent MIC” value [1, 5] was “(6.25-12.5) μg/mL” and the “Independent MIC” value (Magnaporthe grisea; Magnaporthe grisea, individual antifungal, 25% PDB, about 25° C., 72 hours, range over N independent triplicate studies) was 6.25 µg/mL. For the same compound, the “Independent MIC” value [4] was “(3.125-8) ^ μg/mL” and the “Independent MIC” value (Botrytis cinerea 10-1728) was 3.125 µg/mL.
With maneb the “Independent MIC” value [2] was 25 µg/mL, the “Independent MIC” value (Aspergillus niger; [5]) was “(50-100) μg/mL” and the “Independent MIC” value (Aspergillus fumigatus) was 3.125 µg/mL. For the same compound, the “Independent MIC” value (Mucor sp.) was “(25-50) μg/mL”, the “Independent MIC” value (Alternaria solani) was “(25-50) μg/mL” and the “Independent MIC” value (Sclerotinia homoeocarpa) was 1.56 µg/mL. For the same compound, the “Independent MIC” value (Fusarium graminearum) was 12.5 µg/mL, the “Independent MIC” value (Rhizopus sp.) was “(50-100) μg/mL” and the “Independent MIC” value (Rhizoctonia solani) was “(50-100) μg/mL”. The “Independent MIC” value (Phytophthora pini) was 3.125 µg/mL, the “Independent MIC” value (Aspergillus flavus) was “(12.5-25)^ μg/mL” and the “Independent MIC” value (Fusarium verticillioides) was 6.25 µg/mL. The “Independent MIC” value (Penicillium chrysogenum) was 25 µg/mL, the “Independent MIC” value (Candida albicans; [5]) was 1.56 µg/mL and the “Independent MIC” value [1, 5] was “(3.13-6.25) μg/mL”. The “Independent MIC” value (Magnaporthe grisea) was 1.56 µg/mL, the “Independent MIC” value [4] was 25 µg/mL and the “Independent MIC” value (Botrytis cinerea 10-1728) was “(12.5-40)^ μg/mL”.
